# From patent EP0496162A2, “Peptide inhibitors of RAS-GAP interaction” (MERCK & CO. INC., priority 1990, dated 1992)
# pIC50: −log10 of the molar value. No end group written: not given here.
# Tests used:
# [1] = assay type: physicochemical
# Method: (§1) Ras peptides were dissolved in either 100% dimethyl formamide (DMF, American Burdick and Jackson) or 100% dimethyl sulfoxide (DMSO, Fluka UV-spectroscopy grade) at a calculated peptide concentration of 1-4 mM. Following 1 minute in a Sonicor SC-200 bath sonicator at room temperature, the peptide solutions were vortexed, and then centrifuged for 5 minutes at room temperature in an Eppendorf microfuge to remove any undissolved material. 20 µL of the cleared peptide solutions were then added to 80 µL of Buffer D in a dilution series covering a range of peptide concentrations from 0.02 µM up to the maximum solubility limit for each peptide. In each dilution, the solvent concentration was maintained at 20%. These peptides solutions were then centrifuged for 5 minutes at room temperature at 10,000 x g, and the cleared supernatants were divided into 2 parts. One part of each cleared peptide dilution was used in a GAP competition assay: 40 µL was added to a 5 µL solution containing 0.1 mg/mL BSA plus 240 fmol Ha-ras p21-[γ-³²P]GTP. Reactions were initiated upon addition of 5 µL of diluted GAP (10 fmol), and analyzed as described above.
# The other portion of the cleared peptide solution was measured spectrophotometrically to determine solubility and concentration of the peptides. Extinction coefficients were determined by measuring the absorbance at 277 nm of 2 peptides whose exact concentrations were quantitated by amino acid analysis. The extinction coefficients for peptide Ras 17-37 dissolved in buffer D/20% DMF or peptide Ras 91-103 (SEQ ID NO:14)dissolved in water/20% DMSO, were 2580 cm⁻¹M⁻¹ and 2230 cm⁻¹ M⁻¹, respectively. These values were used to determine the exact concentration for each peptide used at each point in the competition assay. In addition, peptide solubility was confirmed by comparing the light scattering at 600 nm for each peptide solution measured before and after centrifugation. Only concentrations reflecting 100% solubility were used in the dose response curves, and the maximum concentration used for each peptide competitor indicates the limit of solubility for that peptide.
# Ras-GAP interaction = target: T1, Ras-GAP interaction (Bos taurus, UniProt P09851); assay: Ras-GAP interaction inhibition assay (GAP-stimulated Ras GTPase, charcoal adsorption); assay type: biochemical, bovine; conditions: concentration of peptide required to reduce GAP stimulated Ras-GTP hydrolysis by 50%; 10 fmol GAP, 240 fmol Ha ras p21-GTP, 4 minutes at 24°C
# T1 construct: made in house; host or cells: GAP: E. coli JM109 (plasmid pYO); Ha-Ras: E. coli RRllaci^q (plasmid pRas[Gly12 Ala59])
# T1 sequence (P09851 1-1044): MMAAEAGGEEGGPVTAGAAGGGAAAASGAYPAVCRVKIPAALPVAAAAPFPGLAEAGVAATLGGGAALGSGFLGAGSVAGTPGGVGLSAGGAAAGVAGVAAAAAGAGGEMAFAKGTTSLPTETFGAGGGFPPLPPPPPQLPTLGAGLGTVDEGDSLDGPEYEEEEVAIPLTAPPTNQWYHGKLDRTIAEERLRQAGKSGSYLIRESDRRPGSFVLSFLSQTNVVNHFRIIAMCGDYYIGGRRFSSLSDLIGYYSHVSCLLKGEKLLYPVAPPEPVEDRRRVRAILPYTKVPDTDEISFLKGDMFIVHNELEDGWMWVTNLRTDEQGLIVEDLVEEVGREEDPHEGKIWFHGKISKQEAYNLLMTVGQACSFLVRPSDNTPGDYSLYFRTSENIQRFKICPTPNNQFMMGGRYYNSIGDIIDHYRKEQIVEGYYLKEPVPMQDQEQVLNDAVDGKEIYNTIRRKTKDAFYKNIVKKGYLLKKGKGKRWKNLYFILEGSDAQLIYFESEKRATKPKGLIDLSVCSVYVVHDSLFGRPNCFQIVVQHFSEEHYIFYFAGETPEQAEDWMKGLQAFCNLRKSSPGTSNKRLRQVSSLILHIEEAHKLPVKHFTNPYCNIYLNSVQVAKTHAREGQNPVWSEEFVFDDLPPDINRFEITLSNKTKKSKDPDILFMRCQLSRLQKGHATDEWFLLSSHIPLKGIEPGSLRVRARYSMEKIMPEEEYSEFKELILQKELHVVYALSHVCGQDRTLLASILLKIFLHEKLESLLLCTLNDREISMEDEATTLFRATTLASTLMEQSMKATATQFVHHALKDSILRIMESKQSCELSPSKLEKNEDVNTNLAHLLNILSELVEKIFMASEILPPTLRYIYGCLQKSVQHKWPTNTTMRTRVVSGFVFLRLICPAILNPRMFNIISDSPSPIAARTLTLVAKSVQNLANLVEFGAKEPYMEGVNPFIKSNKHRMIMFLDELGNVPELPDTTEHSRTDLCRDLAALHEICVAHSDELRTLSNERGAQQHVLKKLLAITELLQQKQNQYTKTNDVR
# Method: The activity of the synthetic peptides of the present invention, as inhibitors of the interaction of ras with GAP was determined in an assay which measures GAP dependent, Ras GTPase activity. Bovine GAP was either purified from fresh bovine brains or recombinantly produced in E. coli. It is understood that the methods of the present invention may utilize either the recombinant full length GAP or the bovine brain derived GAP. In addition, GAP from other species, such as human and mouse, may be substituted for bovine GAP since they share about 95% amino acid homology. Truncated recombinant forms of GAP are also suitable for use in the Ras-GAP interaction assay [Marshall, M.S., et al., (1989), EMBO J., 8, pp1105-1110]. However, for the screening of synthetic peptides for their ability to block the Ras-GAP interaction, the recombinant, full length GAP is preferred.
# The Ras protein utilized in the Ras-GAP GTPase assay of the present invention is Harvey ras (Ha-ras). It is understood that other forms of Ras protein are suitable for use in the present invention. Other suitable forms of Ras protein include, but are not limited to, Kirsten Ras, yeast S. cerevisiae RAS, and N-Ras. Furthermore, it is readily apparent to those skilled in the art that any form of Ras protein which is capable of interacting with GAP is suitable for use in the Ras-GAP GTPase assay.
# Ras GTPase activity was measured by the charcoal adsorption procedure. Each 50 µL reaction contained 10 fmol purified GAP, 240 fmol Ha ras p21-[γ ³²P] GTP and 1 mg/mL BSA in buffer D. Varying amounts of the competing peptides were added as indicated. Prewarmed reactions (24°C) were initiated by the addition of GAP, then incubated for 4 minutes at 24°C. The reactions were terminated by the addition of 5 volumes of ice cold 5% activated charcoal (Sigma: HCl washed) in 50 mM NaH₂PO₄. GTPase activity was quantitated by measuring the free ³²P-orthophosphate in the cleared supernatant after centrifugation of the charcoal mix. GAP-stimulated Ras GTPase activity in the absence of competitors was 40-60 fmol Ras-GTP hydrolyzed; the 100% control value. In the absence of GAP, GTP hydrolysis was not detectable during the incubation period of the assay. Inhibitors of this assay block GAP-stimulated Ras GTPase without impairing intrinsic Ras GTPase, assayed in the absence of GAP following incubation at 24°C for one hour.
# as §1
Compound,Maximum Solubility [1] [µM],pIC50 (Ras-GAP interaction),IC50* (Ras-GAP interaction)
CC[C@H](C)[C@H](NC(=O)[C@H](CC(C)C)NC(=O)[C@H](CCC(N)=O)NC(=O)[C@@H](NC(=O)[C@@H](NC(=O)[C@H](CC(C)C)NC(=O)[C@H](C)NC(=O)[C@@H](N)CO)[C@@H](C)O)[C@@H](C)CC)C(=O)N[C@@H](CCC(N)=O)C(=O)N[C@@H](CC(N)=O)C(=O)N[C@@H](Cc1c[nH]cn1)C(=O)N[C@@H](Cc1ccccc1)C(=O)N[C@H](C(=O)N[C@@H](CC(=O)O)C(=O)N[C@@H](CCC(=O)O)C(=O)N[C@@H](Cc1ccc(O)cc1)C(=O)O)C(C)C [Ras 17-32],19,6.05,–
LIQNHFVDEYDPTIE [Ras 23-37],250,–,no inhibition
SALTIQLIQNHFVDEYDPTIE [Ras 17-37],40,5.44,–
